Here are results for three molecules from ChEMBL document CHEMBL2429821, “A Casein kinase 1/Checkpoint kinase 1 pyrazolo-pyridine protein kinase inhibitor as novel activator of the p53 pathway” (Bioorg Med Chem Lett, 2013).

Activity calls are given as the source filed them. The rule behind the calls is not given here.

Experiment [1] concerns the target Proto-oncogene tyrosine-protein kinase Src (Homo sapiens) (UniProt P12931). In words: Inhibition of human SRC assessed as residual activity at 25 uM relative to control.
A further experiment is filed under the species Bos taurus. In words: Inhibition of cow PKA assessed as residual activity at 25 uM relative to control.
Experiment [2] addresses Rho-associated protein kinase 2 (Rattus norvegicus) (UniProt Q62868). In words: Inhibition of rat ROCK2 assessed as residual activity at 25 uM relative to control.
For experiment [3], the target named is Casein kinase I isoform delta (Rattus norvegicus) (UniProt Q06486). The experiment is described as follows: Inhibition of rat CK1delta assessed as residual activity at 25 uM relative to control.
Experiment [4] concerns the target Dual specificity tyrosine-phosphorylation-regulated kinase 1A (Rattus norvegicus) (UniProt Q63470). The experiment is described as follows: Inhibition of rat DYRK1alpha assessed as residual activity at 25 uM relative to control.
The species entered for experiment [5] is Rattus norvegicus. The experiment is described as follows: Inhibition of rat AMPK assessed as residual activity at 25 uM relative to control.
For experiment [6], the species on record is Oryctolagus cuniculus. The experiment is described as follows: Inhibition of rabbit MKK1 assessed as residual activity at 25 uM relative to control.
Experiment [7] has as its target Cyclin-dependent kinase 2 (Homo sapiens) (UniProt P24941). In words: Inhibition of human CDK2 assessed as residual activity at 25 uM relative to control.
For experiment [8], the target named is T1, Casein kinase I/MDM2 (Homo sapiens) (UniProt Q00987+P48729). In words: Inhibition of CK1-MDM2 complex in human A375 cells assessed as increase in […] protein level at 0.2 to 40 uM after 24 hrs by immunoblotting analysis. Type of experiment: cell-based. The note with it: A-375. For orientation: In western blotting, separated proteins are transferred to a membrane and probed.

In experiment [9] the target is T1, Casein kinase I/MDM2 (Homo sapiens). In words: Inhibition of CK1-MDM2 complex in human A375 cells assessed as increase in p53 protein level at 0.2 to 40 uM after 24 hrs by immunoblotting analysis. Type of experiment: cell-based. The settings on record: A-375.
Experiment [10] has the same target. The experiment is described as follows: Inhibition of CK1-MDM2 complex in human A375 cells assessed as decrease in MDM2 protein level at 0.2 to 40 uM after 24 hrs by immunoblotting analysis. It counts as cell-based. The note with it: A-375.
For experiment [11] the target is unchanged. The experiment is described as follows: Inhibition of CK1-MDM2 complex in human A375 cells assessed as effect on p21 protein level at 0.2 to 40 uM after 24 hrs by immunoblotting analysis. It counts as cell-based. The note with it: A-375.
For experiment [12], the system named is A-375. In words: Cell cycle arrest in human A375 cells assessed as accumulation at G0-G1 phase at 10 uM after 48 hrs by FACS flow cytometric analysis (reference value: 55.4%). Type of experiment: functional.
Experiment [13] relates to A-375. In words: Cell cycle arrest in human A375 cells assessed as accumulation at sub-G1 phase at 80 uM after 48 hrs by FACS flow cytometric analysis (reference value: 2.17%). It counts as functional.
For experiment [14], the target named is Mitogen-activated protein kinase 14 (Homo sapiens, UniProt Q16539). The experiment is described as follows: Inhibition of human p38alpha MAPK in presence of 50 uM ATP. The note with it: read-out: IC50.
Experiment [15] has as its system A-375. The experiment is described as follows: Cell cycle arrest in human A375 cells assessed as accumulation at S phase at 20 uM after 48 hrs by FACS flow cytometric analysis (reference value: 25.1%). Type of experiment: functional. Background: Flow cytometry measures light scatter and fluorescence of single cells or particles in a stream.
Experiment [16] concerns the target Rho-associated protein kinase 2 (Rattus norvegicus) (UniProt Q62868). The experiment is described as follows: Inhibition of rat ROCK2 assessed as residual activity at 10 uM relative to control.
Experiment [17] relates to A-375. The experiment is described as follows: Cell cycle arrest in human A375 cells assessed as accumulation at G0-G1 phase at 80 uM after 48 hrs by FACS flow cytometric analysis (reference value: 55.4%). It counts as functional.
In experiment [18] the test system is A-375. The experiment is described as follows: Cell cycle arrest in human A375 cells assessed as accumulation at sub-G1 phase at 40 uM after 48 hrs by FACS flow cytometric analysis (reference value: 2.17%). It counts as functional.
Experiment [19] concerns A-375. In words: Cytotoxicity against human A375 cells assessed as reduction in cell number at 10 to 40 uM after 24 hrs by light microscopic analysis relative to control. It counts as functional, cell-based.
Experiment [20] has as its system A-375. The experiment is described as follows: Cell cycle arrest in human A375 cells assessed as accumulation at G0-G1 phase at 40 uM after 48 hrs by FACS flow cytometric analysis (reference value: 55.4%). Type of experiment: functional.
The target of experiment [21] is T2, Serine/threonine-protein kinase Chk1 (Homo sapiens, UniProt O14757).
T2 sequence (O14757 whole entry): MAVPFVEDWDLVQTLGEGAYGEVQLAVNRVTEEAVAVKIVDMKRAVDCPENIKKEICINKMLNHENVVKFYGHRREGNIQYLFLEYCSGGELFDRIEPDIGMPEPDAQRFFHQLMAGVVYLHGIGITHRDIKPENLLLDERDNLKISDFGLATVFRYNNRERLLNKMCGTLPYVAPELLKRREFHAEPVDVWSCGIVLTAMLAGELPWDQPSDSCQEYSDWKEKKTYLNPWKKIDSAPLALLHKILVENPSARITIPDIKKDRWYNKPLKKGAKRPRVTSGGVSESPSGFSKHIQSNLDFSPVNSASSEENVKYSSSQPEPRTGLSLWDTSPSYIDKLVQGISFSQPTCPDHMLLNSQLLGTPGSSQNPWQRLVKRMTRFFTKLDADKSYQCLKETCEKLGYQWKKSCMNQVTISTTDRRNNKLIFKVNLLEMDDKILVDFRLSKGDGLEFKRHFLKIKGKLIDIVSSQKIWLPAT
The experiment is described as follows: Inhibition of human CHK1 in presence of 20 uM ATP.

The subject of experiment [22] is A-375. In words: Cell cycle arrest in human A375 cells assessed as accumulation at sub-G1 phase at 20 uM after 48 hrs by FACS flow cytometric analysis (reference value: 2.17%). It counts as functional.
In experiment [23] the target is Cyclin-dependent kinase 2 (Homo sapiens) (UniProt P24941). The experiment is described as follows: Inhibition of human CDK2 assessed as residual activity at 10 uM relative to control.
For experiment [24], the species on record is Oryctolagus cuniculus. The experiment is described as follows: Inhibition of rabbit MKK1 assessed as residual activity at 10 uM relative to control.
In experiment [25] the target is Dual specificity tyrosine-phosphorylation-regulated kinase 1A (Rattus norvegicus) (UniProt Q63470). In words: Inhibition of rat DYRK1alpha assessed as residual activity at 10 uM relative to control.
The subject of experiment [26] is A-375. The experiment is described as follows: Cell cycle arrest in human A375 cells assessed as accumulation at G2-M phase at 40 uM after 48 hrs by FACS flow cytometric analysis (reference value: 17.3%). Type of experiment: functional.
Experiment [27] has as its system A-375. The experiment is described as follows: Cell cycle arrest in human A375 cells assessed as accumulation at G2-M phase at 20 uM after 48 hrs by FACS flow cytometric analysis (reference value: 17.3%). It counts as functional.
In experiment [28] the target is Casein kinase I isoform delta (Rattus norvegicus) (UniProt Q06486). The experiment is described as follows: Inhibition of rat CK1delta assessed as residual activity at 10 uM relative to control.
Experiment [29] deals with A-375. The experiment is described as follows: Cell cycle arrest in human A375 cells assessed as accumulation at sub-G1 phase at 10 uM after 48 hrs by FACS flow cytometric analysis (reference value: 2.17%). It counts as functional.
In experiment [30] the test system is A-375. In words: Cell cycle arrest in human A375 cells assessed as accumulation at G2-M phase at 10 uM after 48 hrs by FACS flow cytometric analysis (reference value: 17.3%). It counts as functional.
Experiment [31] has as its system A-375. The experiment is described as follows: Cell cycle arrest in human A375 cells assessed as accumulation at S phase at 10 uM after 48 hrs by FACS flow cytometric analysis (reference value: 25.1%). It counts as functional.
Experiment [32] concerns the target Proto-oncogene tyrosine-protein kinase Src (Homo sapiens) (UniProt P12931). In words: Inhibition of human SRC assessed as residual activity at 10 uM relative to control.
Experiment [33] addresses Casein kinase I isoform delta (Rattus norvegicus, UniProt Q06486). In words: Inhibition of rat CK1delta in presence of 20 uM ATP.
For experiment [34], the system named is A-375. The experiment is described as follows: Cell cycle arrest in human A375 cells assessed as accumulation at S phase at 40 uM after 48 hrs by FACS flow cytometric analysis (reference value: 25.1%). It counts as functional.
Experiment [35] is filed under the species Rattus norvegicus. In words: Inhibition of rat AMPK assessed as residual activity at 10 uM relative to control.
In experiment [36] the test system is A-375. In words: Cell cycle arrest in human A375 cells assessed as accumulation at G0-G1 phase at 20 uM after 48 hrs by FACS flow cytometric analysis (reference value: 55.4%). Type of experiment: functional.
In experiment [37] the test system is A-375. The experiment is described as follows: Cell cycle arrest in human A375 cells assessed as accumulation at S phase at 80 uM after 48 hrs by FACS flow cytometric analysis (reference value: 25.1%). It counts as functional.
The subject of experiment [38] is A-375. In words: Cell cycle arrest in human A375 cells assessed as accumulation at G2-M phase at 80 uM after 48 hrs by FACS flow cytometric analysis (reference value: 17.3%). It counts as functional.

T1 sequence (P48729 whole entry, looked up): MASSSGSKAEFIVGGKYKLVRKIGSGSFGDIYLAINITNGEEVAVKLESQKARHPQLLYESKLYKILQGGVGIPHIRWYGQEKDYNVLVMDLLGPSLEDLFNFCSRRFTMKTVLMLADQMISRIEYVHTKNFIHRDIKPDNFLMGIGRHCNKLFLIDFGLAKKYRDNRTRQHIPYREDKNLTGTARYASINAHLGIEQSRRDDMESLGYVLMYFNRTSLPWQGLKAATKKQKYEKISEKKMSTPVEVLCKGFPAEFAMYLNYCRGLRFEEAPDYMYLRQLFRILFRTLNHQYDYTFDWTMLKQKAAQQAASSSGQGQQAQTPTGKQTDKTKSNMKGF
T1 sequence (Q00987 whole entry, looked up): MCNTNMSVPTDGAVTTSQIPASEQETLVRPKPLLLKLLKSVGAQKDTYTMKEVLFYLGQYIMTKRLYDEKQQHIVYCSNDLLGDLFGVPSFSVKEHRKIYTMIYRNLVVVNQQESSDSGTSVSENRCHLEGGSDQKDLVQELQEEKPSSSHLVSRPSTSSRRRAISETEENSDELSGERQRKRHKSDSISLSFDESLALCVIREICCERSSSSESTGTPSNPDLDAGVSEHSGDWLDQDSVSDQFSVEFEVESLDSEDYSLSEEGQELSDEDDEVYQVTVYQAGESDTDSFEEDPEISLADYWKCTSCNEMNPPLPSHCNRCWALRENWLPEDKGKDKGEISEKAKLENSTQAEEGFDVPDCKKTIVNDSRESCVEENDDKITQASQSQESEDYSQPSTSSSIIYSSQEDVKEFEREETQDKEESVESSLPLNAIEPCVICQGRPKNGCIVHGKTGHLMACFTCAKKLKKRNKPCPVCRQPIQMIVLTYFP
Chain of Proto-oncogene tyrosine-protein kinase Src (Homo sapiens) (P12931 2-536 limits assumed): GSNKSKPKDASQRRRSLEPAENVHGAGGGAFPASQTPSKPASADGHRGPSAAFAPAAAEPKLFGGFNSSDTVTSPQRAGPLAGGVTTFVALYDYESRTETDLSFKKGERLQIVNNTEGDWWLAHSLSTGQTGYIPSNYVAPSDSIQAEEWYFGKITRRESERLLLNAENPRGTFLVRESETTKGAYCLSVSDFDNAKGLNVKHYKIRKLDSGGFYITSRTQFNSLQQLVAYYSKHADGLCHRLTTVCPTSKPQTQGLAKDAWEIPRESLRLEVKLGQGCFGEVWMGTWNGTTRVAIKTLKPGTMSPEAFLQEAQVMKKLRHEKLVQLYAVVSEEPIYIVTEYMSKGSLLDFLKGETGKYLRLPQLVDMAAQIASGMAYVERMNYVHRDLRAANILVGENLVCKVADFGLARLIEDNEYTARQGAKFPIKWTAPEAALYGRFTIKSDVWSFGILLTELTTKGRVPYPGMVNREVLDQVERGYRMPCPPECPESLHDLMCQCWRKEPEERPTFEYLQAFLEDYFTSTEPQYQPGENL
Chain of Rho-associated protein kinase 2 (Rattus norvegicus) (Q62868 whole entry, looked up, canonical isoform): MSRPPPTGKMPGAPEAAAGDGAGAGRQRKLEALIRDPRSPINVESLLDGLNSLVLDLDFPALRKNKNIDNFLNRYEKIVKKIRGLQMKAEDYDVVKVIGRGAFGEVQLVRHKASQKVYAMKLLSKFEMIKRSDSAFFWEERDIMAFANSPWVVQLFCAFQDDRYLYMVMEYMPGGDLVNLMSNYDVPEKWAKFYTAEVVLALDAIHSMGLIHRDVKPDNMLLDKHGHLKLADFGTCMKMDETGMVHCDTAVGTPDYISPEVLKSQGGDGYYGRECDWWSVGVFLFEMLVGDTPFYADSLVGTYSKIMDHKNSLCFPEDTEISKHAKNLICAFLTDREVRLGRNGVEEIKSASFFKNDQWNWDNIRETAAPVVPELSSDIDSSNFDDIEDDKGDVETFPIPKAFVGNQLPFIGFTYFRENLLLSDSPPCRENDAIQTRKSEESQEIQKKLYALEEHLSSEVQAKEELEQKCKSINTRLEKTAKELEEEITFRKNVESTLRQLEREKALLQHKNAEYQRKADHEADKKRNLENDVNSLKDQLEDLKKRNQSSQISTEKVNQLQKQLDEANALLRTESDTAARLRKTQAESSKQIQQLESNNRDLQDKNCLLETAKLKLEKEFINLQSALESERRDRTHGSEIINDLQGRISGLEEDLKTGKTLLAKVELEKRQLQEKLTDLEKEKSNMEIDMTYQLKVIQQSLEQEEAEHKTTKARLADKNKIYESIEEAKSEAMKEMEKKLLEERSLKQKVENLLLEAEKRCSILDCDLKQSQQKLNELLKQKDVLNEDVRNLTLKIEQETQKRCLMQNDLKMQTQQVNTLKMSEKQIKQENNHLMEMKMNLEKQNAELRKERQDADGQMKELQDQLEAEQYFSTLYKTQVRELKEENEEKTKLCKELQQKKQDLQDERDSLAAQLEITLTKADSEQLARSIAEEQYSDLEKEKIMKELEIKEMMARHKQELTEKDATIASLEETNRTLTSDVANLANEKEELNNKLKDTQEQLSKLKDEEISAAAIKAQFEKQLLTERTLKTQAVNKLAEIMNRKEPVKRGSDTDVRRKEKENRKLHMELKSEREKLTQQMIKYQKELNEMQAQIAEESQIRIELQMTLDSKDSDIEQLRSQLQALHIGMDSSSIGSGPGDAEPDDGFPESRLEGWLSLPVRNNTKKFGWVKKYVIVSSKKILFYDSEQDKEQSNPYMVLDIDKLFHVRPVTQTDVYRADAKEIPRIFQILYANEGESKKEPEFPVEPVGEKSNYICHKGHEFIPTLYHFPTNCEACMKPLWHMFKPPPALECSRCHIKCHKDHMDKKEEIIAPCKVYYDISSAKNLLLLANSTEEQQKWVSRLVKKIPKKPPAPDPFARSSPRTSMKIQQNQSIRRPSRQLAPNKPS
Chain of Casein kinase I isoform delta (Rattus norvegicus) (Q06486 whole entry, looked up, canonical isoform): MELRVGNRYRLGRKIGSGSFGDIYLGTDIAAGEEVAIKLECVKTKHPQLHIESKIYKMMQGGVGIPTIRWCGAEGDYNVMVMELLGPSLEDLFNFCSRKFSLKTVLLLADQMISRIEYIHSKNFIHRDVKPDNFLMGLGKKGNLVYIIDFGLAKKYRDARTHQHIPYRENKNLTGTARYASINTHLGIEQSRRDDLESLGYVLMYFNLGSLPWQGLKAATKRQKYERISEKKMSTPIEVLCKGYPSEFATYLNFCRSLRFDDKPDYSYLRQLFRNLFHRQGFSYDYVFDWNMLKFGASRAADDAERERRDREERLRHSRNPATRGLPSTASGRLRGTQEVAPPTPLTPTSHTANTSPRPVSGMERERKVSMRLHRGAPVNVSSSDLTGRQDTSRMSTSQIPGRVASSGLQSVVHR
Chain of Casein kinase I isoform delta (Q06486 whole entry, canonical isoform): as the sequence (Q06486 whole entry, looked up, canonical isoform) above
Chain of Mitogen-activated protein kinase 14 (Q16539 whole entry): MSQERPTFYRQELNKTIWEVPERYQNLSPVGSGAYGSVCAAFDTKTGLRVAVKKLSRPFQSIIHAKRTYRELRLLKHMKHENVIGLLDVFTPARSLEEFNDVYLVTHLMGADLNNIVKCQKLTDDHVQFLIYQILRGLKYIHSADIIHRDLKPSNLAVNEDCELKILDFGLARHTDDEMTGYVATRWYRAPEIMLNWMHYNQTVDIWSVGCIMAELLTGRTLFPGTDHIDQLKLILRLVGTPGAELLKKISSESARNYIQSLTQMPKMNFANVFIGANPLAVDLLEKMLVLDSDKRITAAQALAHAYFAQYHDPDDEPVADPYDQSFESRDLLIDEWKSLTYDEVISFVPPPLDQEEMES

As for `COc1cc(OC)c(C=C2C(=O)Nc3ccccc32)c(OC)c1`, the Activity in experiment [1] was 70%; in the experiment filed under Bos taurus, 82%; in experiment [2], 78%; in experiment [3] it was 9%; in [4] it was 73%; in the experiment listed under Rattus norvegicus [5], 71%. The Activity is 86% in the experiment listed under Oryctolagus cuniculus [6] and 83% in experiment [7].
For `O=C(Nc1n[nH]c2ncc(-c3cccnc3)cc12)C1CCCC1`, the inhibition result in [8], in experiment [9] and in experiment [10] was “Active” throughout. Further, the inhibition entry in experiment [11] is “inactive”.
Regarding `NC(=O)c1ccc(-c2nc(-c3ccc4c(c3)OCCO4)c(-c3ccccn3)[nH]2)cc1`, the Activity worked out at 55.4% with A-375 [12]; 32.7% in the experiment on A-375 [13]; 31.9% in the experiment with A-375 [15]; 105% in experiment [16]; 52.9% with A-375 [17]; 22.3% with A-375 [18]. In addition, the Activity stood at 43.1% in the experiment with A-375 [20]; 6.96% in the experiment on A-375 [22]; 113% in [23]; 93% in the experiment filed under Oryctolagus cuniculus [24]; 86% in [25]; 9.66% in the experiment on A-375 [26]. The Activity worked out at 18.8% in the experiment with A-375 [27]; 4% in [28]; 3.92% in the experiment with A-375 [29]; 13.7% in the experiment with A-375 [30]; 26.6% in the experiment with A-375 [31]; 82% in experiment [32]. Further, the Activity was 24.3% in the experiment with A-375 [34]; 98% in the experiment listed under Rattus norvegicus [35]; 41.9% with A-375 [36]; 9.33% with A-375 [37]; 4.9% in the experiment on A-375 [38]. For the same molecule, the IC50 in experiment [14] is 4.15 µM; in [21], “Not Active”; in experiment [33], 0.353 µM. Also, in the experiment on A-375 [19], the outcome was Active.

As a reminder, the IC50 is the concentration at which inhibition is half-maximal.
